Source: patent US12544370B2, “Methods for cancer therapy” (ASCENTAGE PHARMA (SUZHOU) CO., LTD., priority 2018, dated 2026)

Columns and labels:
[1] = system: patients with chronic phase (CP/CML-CP) or accelerated phase (AP/CML-AP) CML resistant to or intolerant of ≥2 prior TKIs or with BCR-ABL T315I; test: Phase 1 trial in resistant CML, further efficacy (Example 2); assay type: in vivo, human
Excerpt: The eligible patients received continuous treatment until disease progression or unacceptable toxicity, consent withdrawal, or death. The primary efficacy endpoints were major cytogenetic response (MCyR) for CP and complete hematological response (CHR) for AP. MCyR includes partial cytogenetic response (PCyR) and complete cytogenetic response (CCyR). Blood samples were collected at various time points on Day 1-2 and Day 27-28 during cycle 1 for PK analyses.

[2] = molecular target: Ba/F3 containing BCR-ABL Wild Type (Homo sapiens, UniProt P00519); details: read-out: Antiproliferation Effect (IC50)
Ba/F3 containing BCR-ABL Wild Type, sequence (P00519 whole entry, change not shown): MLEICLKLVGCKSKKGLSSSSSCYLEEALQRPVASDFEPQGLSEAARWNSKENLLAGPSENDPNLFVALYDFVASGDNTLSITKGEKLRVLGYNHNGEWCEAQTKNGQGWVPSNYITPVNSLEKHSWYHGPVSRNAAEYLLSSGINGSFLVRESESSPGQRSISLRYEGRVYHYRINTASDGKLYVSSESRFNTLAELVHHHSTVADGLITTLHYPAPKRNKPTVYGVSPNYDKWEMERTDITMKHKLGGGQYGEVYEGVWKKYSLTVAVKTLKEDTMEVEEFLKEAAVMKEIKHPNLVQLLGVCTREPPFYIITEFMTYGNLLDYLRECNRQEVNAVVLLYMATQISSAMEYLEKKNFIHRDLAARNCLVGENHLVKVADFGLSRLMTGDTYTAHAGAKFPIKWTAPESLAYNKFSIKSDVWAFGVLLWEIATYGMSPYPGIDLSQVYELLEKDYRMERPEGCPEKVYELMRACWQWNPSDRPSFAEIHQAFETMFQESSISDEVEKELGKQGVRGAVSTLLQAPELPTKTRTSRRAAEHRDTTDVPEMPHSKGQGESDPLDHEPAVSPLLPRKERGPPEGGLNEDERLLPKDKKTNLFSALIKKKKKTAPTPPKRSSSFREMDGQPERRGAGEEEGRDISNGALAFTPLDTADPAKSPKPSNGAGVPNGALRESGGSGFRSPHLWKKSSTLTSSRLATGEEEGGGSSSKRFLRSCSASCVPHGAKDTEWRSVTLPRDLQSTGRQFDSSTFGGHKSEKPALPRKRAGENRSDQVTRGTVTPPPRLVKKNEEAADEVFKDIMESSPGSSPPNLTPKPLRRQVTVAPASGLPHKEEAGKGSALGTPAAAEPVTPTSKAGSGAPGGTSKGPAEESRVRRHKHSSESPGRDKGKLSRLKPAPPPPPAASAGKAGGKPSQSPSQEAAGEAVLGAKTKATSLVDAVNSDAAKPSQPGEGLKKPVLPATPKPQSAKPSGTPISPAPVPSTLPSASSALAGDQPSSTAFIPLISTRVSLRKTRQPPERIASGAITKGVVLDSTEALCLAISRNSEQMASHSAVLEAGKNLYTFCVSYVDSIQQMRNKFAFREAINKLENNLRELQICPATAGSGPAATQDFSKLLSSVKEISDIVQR

[3] = system: tyrosine phosphorylation of CRKL in peripheral blood mononuclear cell (PBMCs); test: Phase I study, pharmacodynamics: CRKL phosphorylation in PBMCs (Example 1); assay type: in vivo, human; details: doses 12 mg-60 mg, schedule and dose-dependent
[4] = Table 4, AP-CML, With T315I mut., 11 evaluable
[5] = Table 4, AP-CML, With T315I mut., 11 evaluated
[6] = Table 4, AP-CML, Without T315I mut., 3 evaluable
[7] = Table 4, AP-CML, Without T315I mut., 3 evaluated
[8] = Table 4, CP-CML, With T315I mut., 48 evaluable
[9] = Table 4, CP-CML, With T315I mut., 51 evaluated
[10] = Table 4, CP-CML, Without T315I mut., 33 evaluable
[11] = Table 4, CP-CML, Without T315I mut., 35 evaluated

## Cc1ccc(C(=O)Nc2ccc(CN3CCN(C)CC3)c(C(F)(F)F)c2)cc1C#Cc1cnc2[nH]ncc2c1 [compound of formula (I-A), 3-(2-(1H-pyrazolo[3,4-b]pyridin-5-yl)ethynyl)-4-methyl-N-(4-((4-methylpiperazin-1-yl)methyl)-3-(trifluoromethyl)phenyl)-benzamide]
[1]; AP patients (FIG. 7B)
  progression free survival (PFS) rate at 18-month: 61%
[1]; CP patients (FIG. 7B)
  progression free survival (PFS) rate at 18-month: 94%
[1]; Example 2
  anti-leukemic activity by dose: potent anti-leukemic activities at doses ≥12 mg QOD
[1]; Example 2, 68 evaluable patients with non-CHR at baseline (CP+AP)
  CHR achieved: 63 (92.6%) n (%)
[1]; Table 4, AP-CML, All Patients, 14 evaluated
  Complete molecular response, percent: (14.3%)
[1]; Table 4, AP-CML, With T315I mut., 10 evaluable
  Complete hematological response, percent: (80.0%)
[1]; [4]
  Complete cytogenetic response, percent: (45.5%)
  Major cytogenetic response, percent: (54.5%)
[1]; [5]
  Complete molecular response, percent: (18.2%)
  Major/Complete molecular response, percent: (45.5%)
[1]; [6]
  Complete cytogenetic response: 0 n(%)
  Complete hematological response: 3 (100.0%) n(%)
  Major cytogenetic response: 0 n(%)
[1]; [7]
  Complete molecular response: 0 n(%)
  Major/Complete molecular response: 0 n(%)
[1]; Table 4, CP-CML, All Patients, 86 evaluated
  Complete molecular response, percent: (20.9%)
[1]; Table 4, CP-CML, With T315I mut., 33 evaluable
  Complete hematological response, percent: (97.0%)
[1]; [8]
  Complete cytogenetic response, percent: (77.1%)
  Major cytogenetic response, percent: (81.3%)
[1]; [9]
  Complete molecular response, percent: (29.4%)
  Major/Complete molecular response, percent: (52.9%)
[1]; Table 4, CP-CML, Without T315I mut., 22 evaluable
  Complete hematological response, percent: (90.9%)
[1]; [10]
  Complete cytogenetic response, percent: (36.4%)
  Major cytogenetic response, percent: (51.5%)
[1]; [11]
  Complete molecular response, percent: (8.6%)
  Major/Complete molecular response, percent: (14.3%)
[2]
  GI50: 6 ± 3 nM
[3]
  reduction of CRKL phosphorylation: ≥ 50%
